Data on 31 molecules can be found in ChEMBL document CHEMBL3301361, “Experimental in vitro DMPK and physicochemical data on a set of publicly disclosed compounds”.

The structures appear in SMILES notation.

Data set [1] can be described thus: in vitro. As to conditions: human, plasma.
Data set [2] can be described thus: in vitro. As to conditions: SD, HW or BN, rat, plasma.
Data set [3] in a line: in vitro. To be noted: mouse, plasma.
Data set [4] can be described thus: in vitro. To be noted: hepatocytes.
A short description of another data set: physchem. As to conditions: octan-1-ol/water.
The nature of data set [5]: in vitro. To be noted: human, hepatocytes.
A short description of data set [6]: in vitro. As to conditions: human.

The fraction unbound is the share of the substance not bound to proteins or other matrix. The low end stands for little free substance, the high end for much free substance. What is called hepatocyte CLint is a measure of how fast metabolising enzymes remove a compound, apart from limits set by blood flow. High values mean faster metabolism, low ones greater metabolic stability. What is called logD is lipophilicity at a set pH, counting ionised and neutral species. Usually microsomal CLint stands for the rate of metabolic loss divided by the concentration. Higher therefore signals rapid turnover.

Consider `CCOc1cc(CN2CCC(NC(=O)c3cncc(C)c3)CC2)cc(OCC)c1-c1ccc(F)cc1`, for which the results for the fraction unbound at 5 h in the data set “in vitro [1]” (PPB), in “in vitro [2]” and in “in vitro [3]” were 0.0149, 0.0119 and 0.0139, respectively.

On to `Cc1ccccc1-n1c(Cn2cnc3c(N)ncnc32)nc2cccc(C)c2c1=O`, for which the fraction unbound at 5 h in the data set “in vitro [1]” was 0.0136; in “in vitro [2]”, 0.24; in the data set “in vitro [3]” it was 0.0801. The same molecule returned a hepatocyte CLint in “in vitro [4]” of 24 µL/min/1e6 cells. Further, the logD in “physchem” (pH 7.4) stood at 2.6.

For `CS(=O)(=O)N1CCC(NC(=O)NC23CC4CC(CC(C4)C2)C3)CC1`, the fraction unbound at 5 h in “in vitro [1]” (PPB) was 0.289; in “in vitro [2]”, 0.262; in the data set “in vitro [3]” it was 0.17. Besides, the log distribution coefficient (logD) in the data set “physchem” (pH 7.4, LogD7.4) was 2.7.

Take `Cc1ncccc1Oc1ncnc(OC2CCN(C(=O)OC(C)C)CC2)c1C`: the results for the fraction unbound at 5 h in “in vitro [1]” (PPB), in “in vitro [2]” and in the data set “in vitro [3]” were 0.0079, 0.0313 and 0.0149, respectively. For the same molecule, the logD in “physchem” (pH 7.4, LogD7.4) was 3.8.

Consider `CC(C)(C)OC(=O)NC[C@H]1CC[C@H](CNC(=O)c2cc(N3CCC(CCN4CC(O)C4)CC3)nc3ccccc23)CC1`, for which the fraction unbound at 5 h is 0.03 in the data set “in vitro [1]” (PPB), 0.0328 in “in vitro [2]” and 0.0139 in the data set “in vitro [3]”.

`CN(C)CCC1CCN(c2cc(C(=O)NC[C@H]3CC[C@H](CNC(=O)OCC(C)(C)C)CC3)c3ccccc3n2)CC1`: the values for the fraction unbound at 5 h in “in vitro [1]” (PPB), in “in vitro [2]” and in the data set “in vitro [3]” were 0.0139, 0.0133 and 0.0039, respectively.

With `Cc1nccc(-c2ccc(-c3nc4ccncc4c(O)c3C#N)cc2)c1Cl`, the results for the fraction unbound at 5 h in “in vitro [1]” (PPB), in the data set “in vitro [2]” and in “in vitro [3]” were 0.0014, 0.0014 and 0.0088, respectively. Moreover, in “physchem” (pH 7.4, LogD7.4), the logD was found to be 2.

Consider `COc1ccc2cc(S(=O)(=O)N[C@H](CC(=O)N[C@H](Cc3ccc(CN4[C@H](C)CCC[C@@H]4C)cc3)C(=O)N(C)C(C)C)c3ccc4c(c3)OCO4)ccc2c1`, for which the fraction unbound at 5 h in “in vitro [1]” (PPB) was 0.04; in “in vitro [2]”, 0.0447; in “in vitro [3]”, 0.04.

With `Cc1nccn1-c1sc(Nc2cnccn2)nc1-c1cccc(C#N)c1`, the results for the fraction unbound at 5 h in the data set “in vitro [1]” (PPB), in “in vitro [2]” and in “in vitro [3]” were 0.0437, 0.0437 and 0.0335, respectively.

As for `CO[C@H]1CC[C@]2(CC1)Cc1ccc(-c3cncc(Br)c3)cc1C21N=C(C)C(N)=N1` (stereo not given in full), the fraction unbound at 5 h is 0.139 in the data set “in vitro [1]” (PPB), 0.0661 in the data set “in vitro [2]” and 0.0209 in “in vitro [3]”. Further, the logD in the data set “physchem” (pH 7.4, LogD7.4) was 3.4.

For the molecule `Cc1cccc(-c2ccc(CNC(=O)CCCc3ccc4cccnc4n3)cc2)c1`, the hepatocyte CLint in “in vitro [5]” amounted to 60.3 µL/min/1e6 cells. In addition, the fraction unbound at 5 h in the data set “in vitro [3]” was 0.0022.

As for `O=C1COc2nccc(-c3ccccc3F)c2CN1Cc1cc(C(F)(F)F)cc(C(F)(F)F)c1`, the fraction unbound at 5 h in “in vitro [1]” (PPB) is 0.0063; in “in vitro [2]”, 0.0081; in “in vitro [3]” it was 0.0095.

In the case of `CC1=C(C(=O)OCc2ccccc2)C(c2cccs2)NC(=O)N1` (stereo not given), the fraction unbound at 5 h in the data set “in vitro [1]” (PPB) was 0.0268; in the data set “in vitro [2]”, 0.0171; in “in vitro [3]” it was 0.03.

Turning to `Cc1cc(N2CCC[C@@H]2C(=O)NCCc2ccc3c(c2)OCO3)nc(-n2ccnc2)n1`, the fraction unbound at 5 h in the data set “in vitro [1]” (PPB) is 0.19; in the data set “in vitro [2]” it was 0.22; in “in vitro [3]”, 0.154. This molecule also displayed a logD in “physchem” (pH 7.4, LogD7.4) of 2.5. This molecule also registered a microsomal CLint in the data set “in vitro [6]” (liver microsomes) above 150 µL/min/mg.

With `COC(=O)N[C@@H](C)C#Cc1cnc(Oc2ccc(OC(C)C)cc2)s1`, the fraction unbound at 5 h in “in vitro [1]” (PPB) is 0.0034; in “in vitro [2]” it was 0.0051; in “in vitro [3]”, 0.0099.

With `CC(O)(C(=O)Nc1cccc(S(=O)(=O)c2ccccc2)c1)C(F)(F)F` (stereo not given), the fraction unbound at 5 h in the data set “in vitro [1]” (PPB) was 0.0909; in the data set “in vitro [2]”, 0.0594; in “in vitro [3]”, 0.0661.

Regarding `O=C1CCc2cc(-c3cncc4ccccc34)ccc2N1`, the fraction unbound at 5 h in “in vitro [1]” (PPB) was 0.0358; in “in vitro [2]”, 0.0313; in “in vitro [3]” it was 0.0313.

Turning to `O=C(Nc1ccc(CN2CCNCC2)cc1-c1nc2ccccc2[nH]1)c1cnc2ccccc2n1`, the results for the fraction unbound at 5 h in “in vitro [1]” (PPB), in “in vitro [2]” and in the data set “in vitro [3]” were 0.0009, 0.0801 and 0.0033, respectively.

Turning to `c1ccc2[nH]c(CCc3nc4ccccc4[nH]3)nc2c1`, the results for the fraction unbound at 5 h in “in vitro [1]” (PPB), in “in vitro [2]” and in “in vitro [3]” were 0.16, 0.201 and 0.19, respectively. The same molecule returned a logD in the data set “physchem” (pH 7.4, LogD7.4) of 3.3.

Take `c1ccc2c(c1)CC(N1CCN(c3cccc4c3OCCO4)CC1)C2`: the fraction unbound at 5 h is 0.0262 in “in vitro [1]” (PPB), 0.0428 in “in vitro [2]” and 0.0661 in the data set “in vitro [3]”.

In “in vitro [4]”, `N#Cc1c(O)c2c(-c3ccc(-c4ccccc4O)cc3)csc2[nH]c1=O` had a hepatocyte CLint of 52.5 µL/min/1e6 cells. This molecule had a microsomal CLint in the data set “in vitro [6]” (liver microsomes) below 3 µL/min/mg. In “in vitro [3]”, this molecule gave a fraction unbound at 5 h of 0.0063.

Consider `Cc1ncsc1C(=O)N(Cc1cc(=O)[nH]c2c(F)cccc12)c1cccc(Cl)c1`, for which the fraction unbound at 5 h is 0.0209 in “in vitro [1]” (PPB), 0.0836 in the data set “in vitro [2]” and 0.0736 in “in vitro [3]”.

In the case of `CS(=O)(=O)Nc1ccc2[nH]c(Cc3ccc(Oc4ccccc4)cc3)nc2c1`, the figures for the fraction unbound at 5 h in “in vitro [1]” (PPB), in “in vitro [2]” and in the data set “in vitro [3]” were 0.0055, 0.0061 and 0.0059, respectively.

Consider `COc1ccc(Cl)cc1C1(F)C(=O)Nc2cc(C(F)(F)F)ccc21` (stereo not given), for which the fraction unbound at 5 h in “in vitro [1]” (PPB) is 0.0017; in “in vitro [2]” it was 0.0015; in “in vitro [3]” it was 0.0019.

Consider `CC(C)NC[C@@H](O)COc1cccc2ccccc12` [DEXPROPRANOLOL], for which the fraction unbound at 5 h was 0.176 in “in vitro [1]”, 0.179 in “in vitro [2]” and 0.179 in “in vitro [3]”.

For the molecule `CCOc1ncc(C)c2c1[C@H](c1ccc(C#N)cc1OC)C(C(N)=O)=C(C)N2` [FINERENONE], the fraction unbound at 5 h was 0.0752 in the data set “in vitro [1]” (PPB), 0.0007 in the data set “in vitro [2]” and 0.0007 in “in vitro [3]”. Also, in “in vitro [4]”, the hepatocyte CLint turned out to be 26.9 µL/min/1e6 cells. The same molecule had a logD in “physchem” (pH 7.4, LogD7.4) of 2.51. For the same molecule, the microsomal CLint in “in vitro [6]” (microsomes) came to 97.7 µL/min/mg.

In the case of `Cc1cnc(C(=O)c2ncnc3[nH]ccc23)c(NS(=O)(=O)c2ccc(Cl)c(C(F)(F)F)c2)c1` [ILACIRNON], the fraction unbound at 5 h in “in vitro [1]” (PPB) is 0.0009; in the data set “in vitro [2]” it was 0.0021; in the data set “in vitro [3]”, 0.0069.

Consider `O=C1N(c2ccccc2)c2ccccc2C1(Cc1ccncc1)Cc1ccncc1` [LINOPIRDINE], for which the fraction unbound at 5 h is 0.004 in “in vitro [1]” (PPB), 0.101 in “in vitro [2]” and 0.179 in the data set “in vitro [3]”.

`CC(C)(F)C[C@H](N[C@@H](c1ccc(-c2ccc(S(C)(=O)=O)cc2)cc1)C(F)(F)F)C(=O)NC1(C#N)CC1` [ODANACATIB]: the fraction unbound at 5 h in the data set “in vitro [1]” (PPB) was 0.0606; in the data set “in vitro [2]” it was 0.0366; in the data set “in vitro [3]” it was 0.016. In “physchem” (pH 7.4, LogD7.4), this molecule displayed a logD of 2.9.

In the case of `N[C@@H](CC(=O)N1CCn2c(nnc2C(F)(F)F)C1)Cc1cc(F)c(F)cc1F` [SITAGLIPTIN], the figures for the fraction unbound at 5 h in “in vitro [1]” (PPB), in the data set “in vitro [2]” and in the data set “in vitro [3]” were 0.768, 0.78 and 0.711, respectively. Moreover, in “physchem” (pH 7.4, LogD7.4), the logD is 0.31.

Take `CCc1c(C(=O)C(N)=O)c2c(OCC(=O)OC)cccc2n1Cc1ccccc1` [VARESPLADIB METHYL]: in the data set “in vitro [5]”, the hepatocyte CLint turned out to be 50.1 µL/min/1e6 cells. In the data set “in vitro [3]”, this molecule gave a fraction unbound at 5 h of 0.232.
